{"source": "patent EP1086692A2", "about": "“Estrogen agonists and antagonists for multiple indications” (priority 1999, dated 2001)", "key": {"[1]": {"assay": "Binding of droloxifene and lasofoxifene to human plasma proteins", "conditions": "human, plasma"}, "human plasma proteins [2]": {"system": "human plasma proteins", "assay": "Binding of droloxifene and lasofoxifene to human plasma proteins", "conditions": "binding of the SERM itself, human plasma"}, "human plasma proteins [3]": {"system": "human plasma proteins", "assay": "Binding of propranolol to human plasma proteins in the absence and presence of droloxifene or lasofoxifene (equilibrium dialysis, HPLC-MS)", "conditions": "result in words; droloxifene 200 ng/ml, lasofoxifene 50 ng/ml", "method": "(§1) The effect of droloxifene or lasofoxifene on plasma protein binding was assessed at […] concentrations of 2 and 10 µg/ml and propranolol concentrations of 50 and 500 ng/ml. The concentrations of droloxifene and lasofoxifene used were 200 and 50 ng/ml respectively."}, "[4]": {"assay": "Binding of propranolol to human plasma proteins in the absence and presence of droloxifene or lasofoxifene (equilibrium dialysis, HPLC-MS)", "conditions": "human, plasma", "method": "as §1"}}, "note": "Several values for one entry are separate records, joined by “and”; a condition that tells them apart may be missing. Equal entries are not always repeated.", "data": [{"compound": "CC/C(=C(/c1ccc(OCCN(C)C)cc1)c1cccc(O)c1)c1ccccc1", "note": "[droloxifene]", "values": [{"measurement": "fraction unbound", "setting": "[1]", "value": "3e-05"}, {"measurement": "bound to human plasma proteins", "setting": "human plasma proteins [2]", "value": 99.997, "unit": "%"}, {"measurement": "effect on the protein binding of propranolol in human plasma", "setting": "human plasma proteins [3]", "value": "will not be altered"}]}, {"compound": "Oc1ccc2c(c1)CC[C@H](c1ccccc1)[C@@H]2c1ccc(OCCN2CCCC2)cc1", "note": "[lasofoxifene, (-) cis-6-phenyl-5[4-(2-pyrrolitin-1-yl-ehtoxy)-phenyl]-5,6,7,8-tetrahydronaphthalene-2-ol]", "values": [{"measurement": "bound to human plasma proteins", "setting": "human plasma proteins [2]", "value": "99.997% and 99.94%"}, {"measurement": "effect on the protein binding of propranolol in human plasma", "setting": "human plasma proteins [3]", "value": "will not be altered"}]}, {"compound": "CC(C)NCC(O)COc1cccc2ccccc12", "note": "(stereo not drawn) [propranolol, reference compound]", "values": [{"measurement": "fraction unbound", "setting": "[4]", "value": 0.24}]}]}
